The conditions of series [1]: cited from earlier work.
Series [2] is described as follows: Stability of dye fluorescence near an operating gas diffusion electrode.
A short description of series [3]: Marcus-Cohen bond-energy-bond-order (BEBO) analysis of quenching rate constants. It is filed as physicochemical. An excerpt: Several embodiments provide accurate quantification of excited-state Brønsted-Lowry acidity and reorganization energy of weak photoacids using Marcus-Cohen bond-energy-bond-order (BEBO) theory. Data for this series of proton-accepting quenchers analyze the dependence of driving force on ESPT quenching rate constants and assess the validity of Marcus normal region behavior, as has been performed numerous times for excited-state electron transfer and proton-coupled electron transfer. Like excited-state electron-transfer quenching in polar solvents, ESPT is proposed to proceed through formation of an excited-state encounter complex between reactants prior to proton transfer, but unique to ESPT is dissociation of an excited-state encounter complex between products after proton transfer. […]
where ΔGEC,R^o, ΔGPT^oand −ΔGEC,P^o are the standard Gibbs free energy differences for the individual reaction steps in the excited-state proton-transfer reaction sequence. Kinetic data (Equation 8) and thermodynamic data (Equation 11) are analyzed using Marcus-Cohen bond-energy-bond-order (BEBO) theory, which is based on transition-state theory and results in the following relationship between ΔGPT^‡ and ΔGPT^o, […]

Series [4] in a line: Acid-base titrations of NS—NH2 in the presence of proton-accepting quenchers (modified Stern-Volmer, Equation 7). As to conditions: for KSV,OH−: Equation 7; for pKa: pKa,BH+ (Equation 7). From the text:
Assuming that photoluminescence quenching occurs by ESPT from NS—NH2* to OH^−(aq), the data support that when aOH− is small (i.e. at pH less than about 12), ESPT can be quite slow compared to the excited-state lifetime of NS—NH2*, due to mass action (FIG. 2B). The non-unity quantum yield for ESPT in weakly alkaline aqueous solutions afforded us an opportunity to evaluate a series of aqueous proton-accepting quenchers (glycine (Gly(aq)), proline (Pro(aq)), and trifluoroethanol (TFE(aq))) for their ability to undergo ESPT with NS—NH2*. In order to clearly observe ESPT to a species other than OH^−(aq), added proton-accepting quenchers had to be more basic (ΔG^o<0), or slightly more acidic (ΔG^o>0), than NS—NH2*, and less basic than OH^−(aq). […] As pH values approach and pass the pKa of the proton-accepting quencher, the rate of ESPT slows from a decrease in the concentration of proton-accepting quencher due to its protonation. This is supported by observations from analogous experiments performed using different concentrations of quencher. Best fits of measured photoluminescence spectroscopy data to a modified Stern-Volmer equation for a two-quencher system, including both OH^−(aq) and proton-accepting quencher, provided bimolecular rate constants for deprotonation of the photoacid by each quencher,
where KSV,OH−=K*^−1b and KSV,quencher=k+q,quencherτo,PAH* are the dynamic quenching constants for excited-state proton transfer to OH^−(aq) and proton-accepting quencher, respectively, k+q,quencher is the bimolecular rate constant (M^−1 s^−1) for ESPT quenching by the proton-accepting quencher, and the sum of the activities of B and BH^+ is approximated as the total concentration of the proton-accepting quencher. While the pKa of the proton-accepting quencher is an adjustable parameter during best fitting, extracted pKa values are close to pKa values obtained from the acid-base titration curves of the proton-accepting quenchers. Changing the proton-accepting quencher to one with a smaller pKa value results in a slower non-diffusion-limited rate constant for ESPT with NS—NH2*. The observation of ESPT directly from NS—NH2* to each of two different amino acids, Gly and Pro, is notable, and may have important implications for biological systems where direct protonation of proteins can induce cellular responses.
Table 2 lists driving-force-dependent rate constants for direct excited-state proton transfer from NS—NH2* to various proton-accepting quenchers.
(§1) Several embodiments use the steady-state ultraviolet-visible electronic absorption and photoluminescence spectroscopy for characterization. Equal amounts of aromatic amine photoacids are portioned into five separate 100 mL volumetric flasks. For the non-proton-accepting quencher experiments, the five flasks are filled to the volumetric marker with aqueous solutions of 1 M HCl, 1 M KOH, 2 M KOH, 3 M KOH, and 4 M KOH. The aqueous 1 M KOH solution is titrated with the aqueous 1 M HCl solution to reach the desired pH values from 14 to 6, and the H^+ activities are measured using a pH meter (pH/Ion 510). […] Electronic absorption spectra and photoluminescence spectra are acquired using absorbance and fluorescence spectrometer(s), using a square-bottom quartz cuvette (1 cm path length) at room temperature. Electronic absorption spectra are baselined on a spectrum of deionized water and were corrected for scattering of light. Photoluminescence spectra are recorded by exciting with 310 nm light, slit widths for the excitation and emission monochromators were set to 5 nm, and the PMT detector voltage is set to 600 V. Photoluminescence spectra are corrected for changes in solution refractive index, inner filter effects and the wavelength-dependent correction factor of the fluorimeter.

Series [5] can be described thus: Acid-base titration of aqueous photoacid with absorption and steady-state photoluminescence detection (Henderson-Hasselbalch / Stern-Volmer fits, OH− as quencher).
Text: FIGS. 2A through 2C illustrate acid-base titration of an aqueous solution of NS—NH2 photoacid with absorption and photoluminescence detection in accordance with an embodiment.
where aOH− is the activity of OH^−(aq), K*b pseudo is an erroneous observed equilibrium constant for base dissociation and KSV,OH− is the Stern-Volmer quenching constant, which is strictly dimensionless but reported here in units of M^−1 to be consistent with its typical usage. Unlike the Henderson-Hasselbalch equation, the Stern-Volmer equation is also applicable to non-equilibrium processes.
and KSV,OH−=k+q,OH−τo,PAH*, where τ is the excited-state lifetime (s) of NS—NH2* in the absence (τo,PAH*) or presence (τPAH*) of OH^− quencher and k+q,OH− is the bimolecular rate constant (M^−1 s^−1) for quenching of NS—NH2* by OH^− (forward direction of Reaction 1 with B=OH^−(aq)).
as §1, with “fluorimeter. For experiments that use non-OH^− proton-accepting quenchers, equal amounts of the quencher are added to the dry volumetric flask intended to form the acidic and basic aqueous photoacid solutions, to prevent changes in total quencher concentration during the titration, and titrations are performed similarly to those in the absence of added proton-accepting quenchers. Although the total quencher concentration is kept constant throughout the titration, the activity of the deprotonated quencher species varied as a function of solution pH according to Equation 3. Ionic strength is matched at the most alkaline pH values; however, it is experimentally difficult to maintain the same ionic strength throughout the titration. Normalized photoluminescence intensities as a function of solution pH are obtained by dividing the corrected photoluminescence intensities at the wavelength of maximum photoluminescence to the maximum corrected photoluminescence intensity at the same wavelength.” for “fluorimeter.”

For series [6] the following is noted: cited from earlier work. The source holds these as a separate data set.
For series [7] the following is noted: proton acceptor, aqueous; cited from earlier work.
Series [8] is described as follows: physchem.
[9] abbreviates: 1 M total trifluoroethanol present.
Where [10] appears, read: quenching of NS—NH2*, 1 M total quencher.

The source of these data is US20230358677A1, “Reversible Excited-State Photoacids and Photobases as Dynamic Fluorescence Sensors of Protonic Species” (California Institute of Technology, priority 2022, published 2023).

The structures appear in SMILES notation.

`Oc1ccc2ccc3cccc4ccc1c2c34` [1-hydroxypyrene]: the “ground state pKa” value in series [1] is “about 9”.
In the case of `O=S(=O)(O)c1cc(S(=O)(=O)O)c2ccc3c(O)cc(O)c4ccc1c2c43` [DHPDS, 6,8-dihydroxy-1,3-pyrenedisulfonic acid], the “pK*a” value in series [1] (strong photoacid) was “≈ 0”. Moreover, in series [2] (cathodic current densities of 100 mA/cm^2 in magnitude, or larger), the “fluorescent signal during GDE operation” value was “Some loss of fluorescent signal”. The “photoluminescence intensity during GDE operation” value in series [2] (current density between 0 and −20 mA/cm^2) is recorded as “no significant decrease in photoluminescence intensity”.
Take `Nc1cccc2c(S(=O)(=O)[O-])cccc12.[Na+]` [NS—NH2, 5-aminonaphthalene-1-sulfonic acid sodium salt]: the “ΔGo,PT‡” value in series [3] (Gibbs free energy of activation of proton-transfer step at ΔGPT°=0) is given as 0.080±0.005 eV. Besides, the ““true” pK*a” value in series [3] (Marcus-Cohen BEBO analysis) amounted to 11.7±0.1. The “bimolecular rate constant, deprotonation of NS—NH2* by OH−(aq)” value in series [4] (0.17 M total phosphate present) is reported as “(163±8)×10^8 M^−1 s^−1”; in series [4] (1 M total glycine present) it was “(43±1)×10^8 M^−1 s^−1”; in series [4] (1 M total proline present), “(47±2)×10^8 M^−1 s^−1”; in series [4] (setting [9]), “(60±30)×10^8 M^−1 s^−1”; in series [4] (2 M total glycine present) it was “(38±2)×10^8 M^−1 s^−1”. Further, the “KSV,OH−” value was found to be 37 ± 2 M⁻¹ in series [4] (0.17 M total phosphate present); 20 ± 1 M⁻¹ in series [4] (1 M total glycine present); 22 ± 1 M⁻¹ in series [4] (1 M total proline present); 30 ± 10 M⁻¹ in series [4] (setting [9]); 8.6 ± 0.4 M⁻¹ in series [4] (2 M total glycine present). Further, in series [5] (aqueous solution, ground-state pKa, aromatic amine, aqueous), the pKa – broadly, the negative logarithm of the acid dissociation constant – is more than 17. Further, in series [5] (lifetime data, linearized Stern-Volmer fit, OH−(aq) quencher), the “KSV,τ,OH− (linearized Stern-Volmer)” value is “about 55±1 M^−1”. Further, the “KSV,τ,OH−” value in series [5] (lifetime data, non-linear Stern-Volmer fit, OH−(aq) quencher) is “about 54±6 M^−1”. For the same compound, the “bimolecular rate constant k+q,τ,OH−” value in series [5] (lifetime data, forward direction of Reaction 1 with B=OH−(aq)) is reported as “about (12±1)×10^9 M^−1 s^−1”. Besides, the “KSV,ss,OH−” value in series [5] (steady-state photoluminescence, non-linear Stern-Volmer fit, OH−(aq) quencher) was “about 47±1 M^−1”. Also, in series [5] (steady-state photoluminescence, traditional linearized Stern-Volmer fit, OH−(aq) quencher), the “KSV,ss,OH− (linearized Stern-Volmer)” value is on record as “about 46±1 M^−1”.
In the case of `O=C(O)[C@@H]1CCCN1` [Proline], in series [6], the “pKa, literature value” was 10.5. Besides, in series [4] (1 M total quencher), the “bimolecular rate constant, deprotonation of NS—NH2* by the quencher” value is reported as “(1.70±0.05)×10^8 M^−1 s^−1”. The “k+q,corr” value in series [4] (corrected rate constant, ESPT from NS—NH2* to the proton acceptor) is reported as 7.11 ± 0.21 10^8 M^−1 s^−1. Also, the “k+q” value in series [4] (direct excited-state proton transfer from NS—NH2* to the proton acceptor) is 1.70 ± 0.05 10^8 M^−1 s^−1. Moreover, the figures for the pKa in series [4] (value after the slash), in series [4] (value before the slash) and in series [8] were 10.8, 10.7 and 10.8, respectively. Also, the “KSV,quencher (Equation 7)” value in series [4] (setting [10]) amounted to 0.80 ± 0.02 M⁻¹. In addition, the “KSV,quencher (traditional linearized Stern-Volmer)” value in series [4] (setting [10]) came out at 0.79 ± 0.01 M⁻¹. Also, the “Diffusion Coefficient” value in series [7] is listed as 8.79 10^−6 cm^2/s.
